In patent publication US20130310374A1, “Substituted Imidazoquinoline Derivatives” (PIRAMAL ENTERPRISES LIMITED`, priority 2010, published 2013):

How the values were obtained:
PC3 = test: Cytotoxicity propidium iodide assay, PC3; format: cell-based, human; conditions: Homo sapiens, PC-3; PC3 (prostate), 48 hours treatment; read-out: IC50 Values in μM, C2a
How it was run: (§1)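 Read-out: propidium iodide fluorescence after freeze-thaw, with untreated wells set to 100% viability and IC50 taken from the plotted percentages. Cells (3000/well) were pre-incubated 18-24 h, then treated 48 h with a range of compound concentrations.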

T315I = test: Cytotoxicity propidium iodide assay, T315I; format: cell-based; conditions: T315I (CML), 48 hours treatment; read-out: IC50 Values in μM, C6b
Method: (§2) The assay was designed as in the reference, Anticancer Drugs, 2002, 13, 1-8, the disclosure of which is incorporated herein by reference for the teaching of the assay.
(§3) Cells from cell lines (ATCC) as mentioned in the table given below were seeded at a density of 3000 cells/well in a white opaque 96-well plate. Following incubation at 37° C./5% CO2 for a period of 18-24 hours, the cells were treated with various concentrations (stock solution was prepared in DMSO and subsequent dilutions were made in media as per ATCC guidelines) of the compounds of the present invention for a period of 48 hours. At the end of treatment, the culture medium was discarded, the cells were washed with 1×PBS and 200 μL of […] propidium iodide was added to each well. The plates were frozen at 70° C. overnight. For analysis, the plates were warmed to RT, allowed to thaw and were read in PoleStar fluorimeter with the fluorescence setting. The percentage of viable cells in the non-treated set of wells was considered to be 100 and the percentage viability following treatment was calculated accordingly. IC50 values were calculated from graphs plotted using these percentages. IC50 values for certain compounds of present invention are depicted in Table 1 and % Inhibition of certain compounds of present invention are depicted in Table 2.

K562 = test: Cytotoxicity propidium iodide assay, K562; format: cell-based; conditions: Homo sapiens; K562 (CML), 48 hours treatment; read-out: IC50 Values in μM, C6a
Method: as §2, §3

BxPC3 = test: Cytotoxicity propidium iodide assay, BxPC3; format: cell-based; conditions: Homo sapiens, BXPC-3; BxPC3 (pancreatic), 48 hours treatment; read-out: IC50 Values in μM, C4c
Method: as §2, §3

BT 549 = test: Cytotoxicity propidium iodide assay, BT 549; format: cell-based; conditions: Homo sapiens; BT 549 (breast), 48 hours treatment; read-out: IC50 Values in μM, C3c
Method: as §2, §3

A2780 = test: Cytotoxicity propidium iodide assay, A2780; format: cell-based; conditions: Homo sapiens; A2780 (ovarian), 48 hours treatment; read-out: IC50 Values in μM, C1a
How it was run: as §1

PANC 1 = test: Cytotoxicity propidium iodide assay, PANC 1; format: cell-based; conditions: Homo sapiens; PANC 1 (pancreatic), 48 hours treatment; read-out: IC50 Values in μM, C4a
Method: as §2, §3

KCL22 = test: Cytotoxicity propidium iodide assay, KCL22; format: cell-based; conditions: Homo sapiens, KCL-22; KCL22 (CML), 48 hours treatment; read-out: IC50 Values in μM, C6f
Method: as §2
as §3, with “The plates were frozen at 70° C. overnight.” left out

MDA MB 231 = test: Cytotoxicity propidium iodide assay, MDA MB 231; format: cell-based; conditions: Homo sapiens; MDA MB 231 (breast), 48 hours treatment; read-out: IC50 Values in μM, C3a
Method: as §2
as §3, with “The plates were frozen at 70° C. overnight.” left out

MDA MB 468 = test: Cytotoxicity propidium iodide assay, MDA MB 468; format: cell-based; conditions: Homo sapiens; MDA MB 468 (breast), 48 hours treatment; read-out: IC50 Values in μM, C3b
Method: as §2, §3

MCF7 = test: Cytotoxicity propidium iodide assay, MCF7; format: cell-based; conditions: Homo sapiens; MCF7 (breast), 48 hours treatment; read-out: IC50 Values in μM, C3d
Method: as §2, §3

KCL22/SR = test: Cytotoxicity propidium iodide assay, KCL22/SR; format: cell-based; conditions: Homo sapiens, KCL-22; KCL22/SR (CML), 48 hours treatment; read-out: IC50 Values in μM, C6e
Method: as §2, §3

KU812/SR = test: Cytotoxicity propidium iodide assay, KU812/SR; format: cell-based; conditions: Homo sapiens; KU812/SR (CML), 48 hours treatment; read-out: IC50 Values in μM, C6c
Method: as §2, §3

AsPC 1 = test: Cytotoxicity propidium iodide assay, AsPC 1; format: cell-based; conditions: Homo sapiens, ASPC1; AsPC 1 (pancreatic), 48 hours treatment; read-out: IC50 Values in μM, C4b
Method: as §2
as §3, with “The plates were frozen at 70° C. overnight.” left out

KU812 = test: Cytotoxicity propidium iodide assay, KU812; format: cell-based; conditions: Homo sapiens; KU812 (CML), 48 hours treatment; read-out: IC50 Values in μM, C6d
Method: as §2, §3

Compound	IC50 (PC3)	IC50 (T315I)	IC50 (K562)	IC50 (BxPC3)	IC50 (BT 549)	IC50 (A2780)	IC50 (PANC 1)	IC50 (KCL22)	IC50 (MDA MB 231)	IC50 (MDA MB 468)	IC50 (MCF7)	IC50 (KCL22/SR)	IC50 (KU812/SR)	IC50 (AsPC 1)	IC50 (KU812)
Cn1c(=O)n(CCN2CCOCC2)c2c3cc(-c4cnc5ccccc5c4)ccc3ncc21 [Example 70, 3-Methyl-1-(2-morpholinoethyl)-8-(quinolin-3-yl)-1H-imidazo[4,5-c]quinolin-2(3H)-one]	0.9 µM	2.56 µM	0.7 µM	0.7 µM	2.1 µM	0.3 µM	1 µM	2.17 µM	0.7 µM	1.1 µM	0.7 µM	1.57 µM	3.38 µM	1.6 µM	4 µM
COc1ccc(-n2c(=O)n(C)c3cnc4ccc(-c5cnc6ccccc6c5)cc4c32)cn1 [Example 20, 1-(6-Methoxypyridin-3-yl)-3-methyl-8-(quinolin-3-yl)-1H-imidazo[4,5-c]quinolin-2(3H)-one]	0.27 µM	1.96 µM	0.1 µM	0.45 µM	1 µM	0.07 µM	0.25 µM	2.86 µM	0.37 µM	0.47 µM	0.55 µM	1.09 µM	5.44 µM	0.4 µM	1.99 µM
